{"source": "patent US20060286105A1", "about": "“Tgf-beta antagonists combined with renin-angiotensin-aldosteron-system antagonists for treating renal insufficiency” (priority 2003, published 2006)", "key": {"diabetic rats [1]": {"tested_on": "diabetic rats", "assay": "Proteinuria, early phase treatment of diabetic nephropathy (Example 8)", "format": "in vivo, rat", "details": "therapy weeks 27 to 52 after STZ, 1D11 0.5 mg/kg i.p. 3x/week, enalapril 15 mg/l drinking water, FIG. 7", "description": "Male Sprague-Dawley rats with initial body weight of 250-275 g were studied. All animals were allowed free access to standard diet and tap water. Diabetes was induced by a single intravenous injection of streptozotocin (60 mg/kg body weight). The presence of diabetes was confirmed 2 days later by the measurement of the tail blood glucose level with a reflectance meter. Diabetic rats received daily evening injections of insulin in doses individually adjusted to maintain a blood glucose level between 200 and 450 mg/dl. Blood glucose levels were monitored at least once a week in all diabetic rats and occasionally in control animals for comparison.\nDiabetic rats were divided into 3 groups (n=6 each): group 1 received a control antibody, 13C4; groups 2 and 3 received 1D11 (0.5 mg/kg i.p. three times a week) or enalapril (15 mg/l in the drinking water), respectively from 27 to 52 weeks; group 4 was normal rats.\n(§1) Urinary excretion of proteins was measured in 24 hr urine samples collected in metabolic cages at baseline, 18, 27, 36, 45, and 52 weeks by the modified Coomassie blue G dye-binding assay for proteins.\nThe statistical analysis was performed using the nonparametric Kruskal-Wallis test for multiple comparisons."}, "diabetic rats [2]": {"tested_on": "diabetic rats", "assay": "Urinary albumin excretion by ELISA, early phase treatment (Example 8)", "format": "in vivo, rat", "details": "weeks 27 to 52, at 52 weeks, mean ± SE", "description": "Male Sprague-Dawley rats with initial body weight of 250-275 g were studied. All animals were allowed free access to standard diet and tap water. Diabetes was induced by a single intravenous injection of streptozotocin (60 mg/kg body weight). […] Blood glucose levels were monitored at least once a week in all diabetic rats and occasionally in control animals for comparison. Diabetic rats were divided into 3 groups (n=6 each): group 1 received a control antibody, 13C4; groups 2 and 3 received 1D11 (0.5 mg/kg i.p. three times a week) or enalapril (15 mg/l in the drinking water), respectively from 27 to 52 weeks; group 4 was normal rats. […] The statistical analysis was performed using the nonparametric Kruskal-Wallis test for multiple comparisons."}, "diabetic rats [3]": {"tested_on": "diabetic rats", "assay": "Renal histology, early phase treatment (Example 8)", "format": "in vivo, rat", "details": "weeks 27 to 52, 52 weeks, mean ± SE", "description": "Male Sprague-Dawley rats with initial body weight of 250-275 g were studied. All animals were allowed free access to standard diet and tap water. Diabetes was induced by a single intravenous injection of streptozotocin (60 mg/kg body weight). […] Blood glucose levels were monitored at least once a week in all diabetic rats and occasionally in control animals for comparison. […] Renal morphology was assessed as glomerulosclerosis, interstitial inflammation and tubular damage. Specifically, the removed kidneys were fixed overnight in Dubosq-Brazil, dehydrated in alcohol, and embedded in paraffin. Kidney samples were sectioned at 3-μm intervals, and the sections were stained with Masson's trichrome, hematoxylin and eosin, or periodic-acid Schiff reagent (PAS stain). […] All renal biopsies were analyzed by the same pathologist who was unaware of the nature of the experimental groups. The statistical analysis was performed using the nonparametric Kruskal-Wallis test for multiple comparisons."}, "diabetic rats [4]": {"tested_on": "diabetic rats", "assay": "Systolic blood pressure by tail cuff, early phase treatment (Example 8)", "format": "in vivo, rat", "details": "mean ± SE", "description": "Male Sprague-Dawley rats with initial body weight of 250-275 g were studied. All animals were allowed free access to standard diet and tap water. Diabetes was induced by a single intravenous injection of streptozotocin (60 mg/kg body weight). […] Blood glucose levels were monitored at least once a week in all diabetic rats and occasionally in control animals for comparison. Diabetic rats were divided into 3 groups (n=6 each): group 1 received a control antibody, 13C4; groups 2 and 3 received 1D11 (0.5 mg/kg i.p. three times a week) or enalapril (15 mg/l in the drinking water), respectively from 27 to 52 weeks; group 4 was normal rats. Systolic blood pressure was measured every two months after diabetic induction by the tail cuff method. The statistical analysis was performed using the nonparametric Kruskal-Wallis test for multiple comparisons."}, "diabetic rats [5]": {"tested_on": "diabetic rats", "assay": "Serum creatinine, early phase treatment (Example 8)", "format": "in vivo, rat", "details": "weeks 27 to 52, 52 weeks, mean ± SE", "description": "Male Sprague-Dawley rats with initial body weight of 250-275 g were studied. All animals were allowed free access to standard diet and tap water. Diabetes was induced by a single intravenous injection of streptozotocin (60 mg/kg body weight). […] Blood glucose levels were monitored at least once a week in all diabetic rats and occasionally in control animals for comparison. […] Serum creatinine was measured at the end of the study by autoanalyzer (CX5 Beckman). The statistical analysis was performed using the nonparametric Kruskal-Wallis test for multiple comparisons."}, "diabetic rats [6]": {"tested_on": "diabetic rats", "assay": "Proteinuria, late phase treatment of diabetic nephropathy (Example 9)", "format": "in vivo, rat", "details": "therapy weeks 52 to 61 after STZ, 1D11 0.5 mg/kg i.p. 3x/week, enalapril 15 mg/l drinking water, FIG. 8", "description": "as §1\nDiabetic rats were kept as described in Example 8 and were divided into 4 groups (n=5-6 each) and given from 52 to 61 weeks after the diabetis induction the following: the irrelevant antibody 13C4; the anti-TGF-β antibody 1D11 (0.5 mg/kg i.p. three times a week); the ACE inhibitor enalapril (15 mg/l in the drinking water), or the combination of 1D11 and enalapril. Five normal rats were used as controls. Systolic blood pressure was measured every two months after diabetes induction. Urinary excretion of proteins was measured in 24 hour urine samples collected in metabolic cages at baseline, 18, 27, 36, 45, 52, and 61 weeks. All measurements and data analysis were performed as described in Example 8."}, "diabetic rats [7]": {"tested_on": "diabetic rats", "assay": "Urinary albumin excretion, late phase treatment (Example 9)", "format": "in vivo, rat", "details": "weeks 52 to 61, at 61 weeks, mean ± SE", "description": "(§2) Five normal rats were used as controls. Systolic blood pressure was measured every two months after diabetes induction. […] All measurements and data analysis were performed as described in Example 8."}, "diabetic rats [8]": {"tested_on": "diabetic rats", "assay": "Renal histology, late phase treatment (Example 9)", "format": "in vivo, rat", "details": "weeks 52 to 61, 61 weeks, mean ± SE", "description": "Renal morphology was assessed as glomerulosclerosis, interstitial inflammation and tubular damage. Specifically, the removed kidneys were fixed overnight in Dubosq-Brazil, dehydrated in alcohol, and embedded in paraffin. Kidney samples were sectioned at 3-μm intervals, and the sections were stained with Masson's trichrome, hematoxylin and eosin, or periodic-acid Schiff reagent (PAS stain). […] All renal biopsies were analyzed by the same pathologist who was unaware of the nature of the experimental groups. […] Five normal rats were used as controls. Systolic blood pressure was measured every two months after diabetes induction. […] All measurements and data analysis were performed as described in Example 8."}, "diabetic rats [9]": {"tested_on": "diabetic rats", "assay": "Systolic blood pressure, late phase treatment (Example 9)", "format": "in vivo, rat", "details": "mean ± SE", "description": "as §2, with “Systolic blood pressure was measured every two months after diabetic induction by the tail cuff method. […] Five” for “Five”"}, "diabetic rats [10]": {"tested_on": "diabetic rats", "assay": "Serum creatinine, late phase treatment (Example 9)", "format": "in vivo, rat", "details": "weeks 52 to 61, 61 weeks, mean ± SE", "description": "Serum creatinine was measured at the end of the study by autoanalyzer (CX5 Beckman). […] Five normal rats were used as controls. Systolic blood pressure was measured every two months after diabetes induction. […] All measurements and data analysis were performed as described in Example 8."}, "diabetic rats [11]": {"tested_on": "diabetic rats", "assay": "Systolic blood pressure by tail plethysmography in diabetic rats (Example 3)", "format": "in vivo, rat", "details": "uninephrectomized STZ-diabetic rats; treated months 4-8; antibody 0.5 mg/kg i.p. 3x/week, lisinopril 12.5 mg/l drinking water; FIG. 2", "description": "Male Sprague-Dawley rats with initial body weights of 250 to 300 g were used in this study. Animal care and treatment were conducted in accordance with the U.S. […] All animals were housed in a room in which the temperature was kept constant on a 12-hour dark/12-hour light cycle and allowed free access to standard diet containing 20% protein by weight and tap water. The animals were subjected to unilateral nephrectomy under anaesthesia one week prior to the induction of diabetes to accelerate the onset of renal disease. The animals were rendered diabetic by a single intravenous (i.v.) injection of streptozotocin (STZ, Zanosar, Upjohn, Kalamazoo, Mich.; 60 mg/kg body weight). Food and water consumption, weight gain and the blood glucose levels were monitored to determine the degree of diabetes. The blood was obtained from the tip of the tails and analyzed by a modified glucose dehydrogenase method. […] Four months, after the induction of diabetes, animals were divided into seven groups of eight (unless otherwise indicated), which were treated for the next four months as follows: Animals were treated as described in Example 1. Systolic blood pressure at the end of the treatment period was recorded by tail plethysmography in conscious rats as described in Pfeffer et al."}, "diabetic rats [12]": {"tested_on": "diabetic rats", "assay": "Glomerular sclerosis, renal histology in diabetic rats (Example 4)", "format": "in vivo, rat", "details": "uninephrectomized STZ-diabetic rats; treated months 4-8; antibody 0.5 mg/kg i.p. 3x/week, lisinopril 12.5 mg/l drinking water; FIG. 3", "description": "Animals were treated as described in Example 1. At the end of the study, rat kidneys were harvested and fixed with 5% buffered formalin solution, embedded in paraffin, sectioned and stained with periodic acid-Schiff (PAS) for light microscopy analyses.\nGlomerular diameters were measured and the degree of matrix expansion and glomerular injury was assessed on a minimum of 100 glomeruli/section. The degree of glomerulosclerosis was scored as previously described (Raij et al. (1984) Kidney Int., 26:137-143). The percentage of glomerular sclerosis was determined by an unbiased, trained pathologist who recorded pathologic changes using a 0-4 scale (score of 0 indicates no damage; 1+ indicates changes affecting less than 25% of the samples; 2+ indicates changes affecting 25- 50% of the sample; 3+, changes affecting 50-75% of the sample; 4+ changes affecting 75-100% of the sample)."}, "TGF-β": {"target": "TGF-β", "assay": "Antigen affinity and isoform specificity of anti-TGF-β antibodies", "format": "binding", "excerpt": "The epitopes for 1[…] al. (1998) J. Immunol., 142:1536-1541) and CAT192 have been mapped to the C-terminal portion of mature TGF-β."}}, "note": "pKd: −log10 of the molar value.", "data": [{"molecule": "CCOC(=O)[C@H](CCc1ccccc1)N[C@@H](C)C(=O)N1CCC[C@H]1C(=O)O", "note": "[enalapril, 1-[N-[(S)-1-carboxy-3-phenylpropyl]-L-alanyl]-L-proline-1′-ethyl ester]", "values": [{"measurement": "proteinuria (in words)", "setting": "diabetic rats [1]", "value": "similarly efficacious in reducing proteinuria"}, {"measurement": "Urinary albumin excretion", "setting": "diabetic rats [2]", "value": "4.70 ± 0.83*°# mg/day"}, {"measurement": "Interstitial inflammation (score)", "setting": "diabetic rats [3]; graded 0 to 4+", "value": "0.33 ± 0.21", "unit": "score"}, {"measurement": "Tubular damage (score)", "setting": "diabetic rats [3]; graded 0 to 4+", "value": "0.50 ± 0.22", "unit": "score"}, {"measurement": "Glomeruli with sclerotic changes", "setting": "diabetic rats [3]", "value": "1.53 ± 0.32", "unit": "° %"}, {"measurement": "Systolic blood pressure", "setting": "diabetic rats [4]; early phase study, week 27, before treatment (baseline of group)", "value": "148.33 ± 2.47", "unit": "mmHg"}, {"measurement": "Systolic blood pressure", "setting": "diabetic rats [4]; early phase treatment from week 27, week 36", "value": "127.50 ± 2.81**°° mmHg"}, {"measurement": "Systolic blood pressure", "setting": "diabetic rats [4]; early phase treatment from week 27, week 45", "value": "118.33 ± 2.47", "unit": "°° mmHg"}, {"measurement": "Systolic blood pressure", "setting": "diabetic rats [4]; early phase treatment from week 27, week 52", "value": "117.50 ± 2.14", "unit": "°° mmHg"}, {"measurement": "Serum creatinine", "setting": "diabetic rats [5]", "value": "0.49 ± 0.07", "unit": "mg/dL"}, {"measurement": "proteinuria (in words)", "setting": "diabetic rats [6]", "value": "similarly efficacious in reducing proteinuria"}, {"measurement": "Urinary albumin excretion", "setting": "diabetic rats [7]", "value": "30.40 ± 15.08", "unit": "mg/day"}, {"measurement": "Interstitial inflammation (score)", "setting": "diabetic rats [8]; graded 0 to 4+", "value": "0.60 ± 0.24", "unit": "score"}, {"measurement": "Tubular damage (score)", "setting": "diabetic rats [8]; graded 0 to 4+", "value": "0.60 ± 0.24", "unit": "score"}, {"measurement": "Glomeruli with sclerotic changes", "setting": "diabetic rats [8]", "value": "4.60 ± 2.19", "unit": "%"}, {"measurement": "Systolic blood pressure", "setting": "diabetic rats [9]; late phase study, week 36, before therapy (given weeks 52 to 61)", "value": "158.33 ± 2.79", "unit": "mmHg"}, {"measurement": "Systolic blood pressure", "setting": "diabetic rats [9]; late phase study, week 52, start of therapy (given weeks 52 to 61)", "value": "165.00 ± 2.89", "unit": "mmHg"}, {"measurement": "Systolic blood pressure", "setting": "diabetic rats [9]; late phase treatment, weeks 52 to 61, week 61", "value": "135.00 ± 1.58**°° mmHg"}, {"measurement": "Serum creatinine", "setting": "diabetic rats [10]", "value": "0.56 ± 0.07", "unit": "mg/dL"}]}, {"molecule": "NCCCC[C@H](N[C@@H](CCc1ccccc1)C(=O)O)C(=O)N1CCC[C@H]1C(=O)O", "note": "[lisinopril, 1-[N2-[(S)-1-carboxy-3-phenylpropyl]-L-lysyl]-L-proline]", "values": [{"measurement": "systolic blood pressure at end of treatment", "setting": "diabetic rats [11]", "value": "limited blood pressure increase to a similar extent as 1D11"}, {"measurement": "percentage of glomeruli with sclerotic changes (in words)", "setting": "diabetic rats [12]", "value": "limited the percentage of glomeruli with sclerosis to a similar degree as 1D 11"}]}, {"molecule": "CAT192: fully human monoclonal anti-TGF-β1 antibody generated by phage display, described in WO 00/66631", "values": [{"measurement": "pKd", "setting": "TGF-β", "value": "~11.08"}, {"measurement": "TGF-β isoform binding specificity", "setting": "TGF-β", "value": "specifically binds TGF-β only"}, {"measurement": "systolic blood pressure at end of treatment", "setting": "diabetic rats [11]", "value": "displayed an anti-hypertensive effect"}]}]}
